Where a chain is given by its changes, count along the chain named. Where a name gives a salt, the structure may show the parent alone. Read-outs that look alike come from different tables or passages of the source.
Experiments:
RET (658-1114) = target: T1, RET (658-1114) (Homo sapiens, UniProt P07949); test: HiBiT-Degradation, RET wild-type degradation assay (Nano-Glo HiBiT Lytic), 293T.144 cells; format: cell-based; conditions: for Emax / DC50: 6.0 hours; for Emax: read-out: 293T.144 RET (658-1114) 6.0 hours (Emax); for DC50: read-out: 293T.144 RET (658-1114) 6.0 hours (DC50)
T1 construct: 658-1114; expressed in transfected cells; host or cells: 293T.144 (293T cells, generated in-house)
T1 sequence (P07949 658-1114): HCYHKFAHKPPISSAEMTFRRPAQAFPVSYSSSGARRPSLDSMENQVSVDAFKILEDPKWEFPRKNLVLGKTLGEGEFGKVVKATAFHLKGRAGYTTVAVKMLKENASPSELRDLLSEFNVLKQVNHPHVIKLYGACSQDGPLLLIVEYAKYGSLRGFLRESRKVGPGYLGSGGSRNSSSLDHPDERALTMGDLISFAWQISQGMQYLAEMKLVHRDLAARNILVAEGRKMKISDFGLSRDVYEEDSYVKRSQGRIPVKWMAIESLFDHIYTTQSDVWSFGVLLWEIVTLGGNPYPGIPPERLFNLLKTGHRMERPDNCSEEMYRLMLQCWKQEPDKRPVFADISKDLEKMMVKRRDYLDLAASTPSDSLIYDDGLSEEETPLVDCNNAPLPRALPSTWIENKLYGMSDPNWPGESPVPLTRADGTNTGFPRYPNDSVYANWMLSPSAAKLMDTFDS
Summary of the method: (§1)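 Degradation quantified by HiBiT lytic luminescence in 293T cells expressing tagged WT or G810R RET kinase domain after 6 h dosing up to 10 μM; DC50 and Emax fitted.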

RET(KD: 658-1114 G810R) = target: T2, RET(KD: 658-1114 G810R) (Homo sapiens, UniProt P07949, G810R); test: HiBiT-Degradation, RET G810R degradation assay (Nano-Glo HiBiT Lytic), 293T.165 cells; format: cell-based; conditions: for Emax / DC50: 6.0 hours; for Emax: % remaining protein, read-out: 293T.165 RET(KD: 658-1114 G810R) 6.0 hours (Emax); for DC50: read-out: 293T.165 RET(KD: 658-1114 G810R) 6.0 hours (DC50)
T2 construct: 658-1114; expressed in transfected cells; host or cells: 293T.165 (293T cells, generated in-house)
T2 sequence (P07949 658-1114 G810R): T1 sequence (P07949 658-1114) with G153R
Summary of the method: as §1

[1] = half-maximal degradation concentration

Compound | 293T.144 RET (658-1114) 6.0 hours (IP) [nM] (RET (658-1114)) | Emax (RET (658-1114); % remaining protein) [%] | DC50 (RET (658-1114); [1]) [µM] | 293T.165 RET(KD: 658-1114 G810R) 6.0 hours (IP) [nM] (RET(KD: 658-1114 G810R)) | Emax (RET(KD: 658-1114 G810R)) [%] | DC50 (RET(KD: 658-1114 G810R); [1]) [µM] | 293T.144 RET (658-1114) 6.0 hours (IP) [nM] (RET (658-1114); HiBiT-Degradation) | DC50 (RET (658-1114); HiBiT-Degradation) [µM] | Emax (RET (658-1114); HiBiT-Degradation) [%] | 293T.165 RET(KD: 658-1114 G810R) 6.0 hours (Emax) (RET(KD: 658-1114 G810R); HiBiT-Degradation) | 293T.165 RET(KD: 658-1114 G810R) 6.0 hours (IP) [nM] (RET(KD: 658-1114 G810R); HiBiT-Degradation) | DC50 (RET(KD: 658-1114 G810R); HiBiT-Degradation) [µM]
COc1cc(N2CCN(C3CCC(n4cc(-c5cn6ncc(C#N)c6c(-c6ccc(N7CC8COCC(C7)N8Cc7ccccn7)nc6)n5)cn4)CC3)CC2)c(F)cc1NC1CCC(=O)NC1=O (stereo not shown) [Compound 205, 6-[1-[4-[4-[4-[(2,6-dioxo-3-piperidyl)amino]-2-fluoro-5-methoxy-phenyl]piperazin-1-yl]cyclohexyl]pyrazol-4-yl]-4-[6-[9-(2-pyridylmethyl)-3-oxa-7,9-diazabicyclo[3.3.1]nonan-7-yl]-3-pyridyl]pyrazolo[1,5-a]pyrazine-3-carbonitrile] | ++++ (<50 nM = ++++) | < 30 | < 0.05 | +++ (<100 nM = +++) | < 30 | < 0.1 |  |  |  |  |  | 
N#Cc1cnn2cc(-c3cnn(C4CCN(C(=O)CN5CCC(c6ccc(NC7CCC(=O)NC7=O)cc6)CC5)CC4)c3)cc(-c3ccc(N4CCN(C(=O)Cc5ccc(F)cn5)CC4)nc3)c12 (stereo not shown) [Compound 15, 6-[1-[1-[2-[4-[4-[(2,6-dioxo-3-piperidyl)amino]phenyl]-1-piperidyl]acetyl]-4-piperidyl]pyrazol-4-yl]-4-[6-[4-[2-(5-fluoro-2-pyridyl)acetyl]piperazin-1-yl]-3-pyridyl]pyrazolo[1,5-a]pyridine-3-carbonitrile formic acid salt] |  |  |  |  | < 30 | < 0.1 | ++++ (< 50 nM = ++++) | < 0.05 | < 30 | ++++ (< 30% = ++++) | ++++ (< 50 nM = ++++) | < 0.1
CCC1(C(=O)NC2CCC2)CCN(c2ccc(-c3nc(-c4cnn([C@H]5CC[C@H](N6CCC(c7ccc(N[C@H]8CCC(=O)NC8=O)cc7Cl)CC6)CC5)c4)cn4ncc(C#N)c34)cn2)CC1 (single isomer, unassigned) [Compound 130] | ++++ (<50 nM = ++++) | < 30 | < 0.05 | ++++ (<50 nM = ++++) | < 30 | < 0.05 |  |  |  |  |  | 

The remaining lines, values ahead:

293T.144 RET (658-1114) 6.0 hours (IP) [nM] (RET (658-1114)) | Emax (RET (658-1114); % remaining protein) [%] | DC50 (RET (658-1114); [1]) [µM] | 293T.165 RET(KD: 658-1114 G810R) 6.0 hours (IP) [nM] (RET(KD: 658-1114 G810R)) | Emax (RET(KD: 658-1114 G810R)) [%] | DC50 (RET(KD: 658-1114 G810R); [1]) [µM] | 293T.144 RET (658-1114) 6.0 hours (IP) [nM] (RET (658-1114); HiBiT-Degradation) | DC50 (RET (658-1114); HiBiT-Degradation) [µM] | Emax (RET (658-1114); HiBiT-Degradation) [%] | 293T.165 RET(KD: 658-1114 G810R) 6.0 hours (Emax) (RET(KD: 658-1114 G810R); HiBiT-Degradation) | 293T.165 RET(KD: 658-1114 G810R) 6.0 hours (IP) [nM] (RET(KD: 658-1114 G810R); HiBiT-Degradation) | DC50 (RET(KD: 658-1114 G810R); HiBiT-Degradation) [µM] | Compound
++++ (<50 nM = ++++) | < 30 | < 0.05 | ++++ (<50 nM = ++++) | < 30 | < 0.05 |  |  |  |  |  |  | N#Cc1cnn2cc(-c3cnn(C4CCN(C(=O)CC5(O)CCN(c6ccc(NC7CCC(=O)NC7=O)cc6F)CC5)CC4)c3)nc(-c3ccc(N4CCC(O)(Cc5ccccc5)CC4)nc3)c12 (stereo not shown) [Compound 117, 4-[6-(4-benzyl-4-hydroxy-1-piperidyl)-3-pyridyl]-6-[1-[1-[2-[1-[4-[(2,6-dioxo-3-piperidyl)amino]-2-fluoro-phenyl]-4-hydroxy-4-piperidyl]acetyl]-4-piperidyl]pyrazol-4-yl]pyrazolo[1,5-a]pyrazine-3-carbonitrile]
 |  |  |  | < 30 | < 0.05 | ++++ (< 50 nM = ++++) | < 0.05 | < 30 | ++++ (< 30% = ++++) | ++++ (< 50 nM = ++++) | < 0.05 | N#Cc1cnn2cc(-c3cnn([C@H]4CC[C@H](CCN5CCC(c6ccc(NC7CCC(=O)NC7=O)cc6F)CC5)CC4)c3)cc(-c3ccc(N4CCN(C(=O)Cc5ccc(F)cn5)CC4)nc3)c12 (stereo partly shown) [Compound 57, 6-[1-[(1r,4r)-4-[2-[4-[4-[(2,6-dioxo-3-piperidyl)amino]-2-fluoro-phenyl]-1-piperidyl]ethyl]cyclohexyl]pyrazol-4-yl]-4-[6-[4-[2-(5-fluoro-2-pyridyl)acetyl]piperazin-1-yl]-3-pyridyl]pyrazolo[1,5-a]pyridine-3-carbonitrile]

— patent US12661410B2, “Compounds for targeted degradation of RET” (C4 Therapeutics, Inc., priority 2020, dated 2026)
